{"source": "paper PMC6122928", "about": "(The Journal of General Physiology, 2018)", "key": {"xTMEM16A [1]": {"molecular_target": "T1, xTMEM16A (Xenopus laevis, UniProt B5SVV6)", "T1 sequence (B5SVV6 1-979)": "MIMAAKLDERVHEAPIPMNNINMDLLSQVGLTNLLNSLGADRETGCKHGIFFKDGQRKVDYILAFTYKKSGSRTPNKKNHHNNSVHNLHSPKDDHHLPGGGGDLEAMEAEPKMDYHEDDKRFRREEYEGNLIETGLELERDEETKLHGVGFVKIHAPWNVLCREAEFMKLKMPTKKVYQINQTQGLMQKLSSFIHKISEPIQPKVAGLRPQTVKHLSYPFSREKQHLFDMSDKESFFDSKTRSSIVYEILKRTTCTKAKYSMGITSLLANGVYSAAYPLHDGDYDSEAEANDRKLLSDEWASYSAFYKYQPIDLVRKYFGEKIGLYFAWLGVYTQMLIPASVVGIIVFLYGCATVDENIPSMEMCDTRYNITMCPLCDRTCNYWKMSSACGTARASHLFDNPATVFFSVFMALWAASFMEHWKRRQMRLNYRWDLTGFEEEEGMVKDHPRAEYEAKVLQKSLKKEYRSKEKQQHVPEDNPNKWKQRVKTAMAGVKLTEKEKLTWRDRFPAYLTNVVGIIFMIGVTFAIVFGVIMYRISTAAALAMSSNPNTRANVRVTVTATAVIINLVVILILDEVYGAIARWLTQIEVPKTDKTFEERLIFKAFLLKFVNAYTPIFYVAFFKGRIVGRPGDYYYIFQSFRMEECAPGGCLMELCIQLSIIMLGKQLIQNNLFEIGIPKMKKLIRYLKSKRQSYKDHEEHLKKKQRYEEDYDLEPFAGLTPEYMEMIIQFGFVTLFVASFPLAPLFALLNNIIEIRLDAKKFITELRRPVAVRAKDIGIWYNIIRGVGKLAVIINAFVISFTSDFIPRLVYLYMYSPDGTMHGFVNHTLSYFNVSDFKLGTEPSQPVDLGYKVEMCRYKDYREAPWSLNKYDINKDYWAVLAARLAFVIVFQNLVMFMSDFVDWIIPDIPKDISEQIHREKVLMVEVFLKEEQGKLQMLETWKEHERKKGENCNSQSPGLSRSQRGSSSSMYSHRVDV", "assay": "TEVC in axolotl oocytes, current evoked by uncaging IP3", "type": "cell-based"}, "xTMEM16A [2]": {"molecular_target": "T1, xTMEM16A", "assay": "TEVC in axolotl oocytes, current evoked by uncaging IP3", "type": "cell-based", "details": "7.5 µM; otherwise same; printed as almost 50%"}}}
{"smiles": "COc1ccccc1C=NNC(=O)COc1ccc(Cl)cc1C", "note": "[Ani9, 2-(4-chloro-2-methylphenoxy)-N-[(2-methoxyphenyl)methylideneamino]-acetamide]", "values": [{"measurement": "inhibition at 1 µM", "setting": "xTMEM16A [1]; read-out: % inhibition at 1 μM", "value": "~80", "unit": "%"}]}
{"smiles": "O=S(=O)(O)c1cc(N=C=S)ccc1/C=C/c1ccc(N=C=S)cc1S(=O)(=O)O", "note": "[DIDS]", "values": [{"measurement": "inhibition at 7.5 µM", "setting": "xTMEM16A [1]; read-out: % inhibition at 7.5 μM", "value": "~50", "unit": "%"}]}
{"smiles": "COc1cc(Nc2ccc([N+](=O)[O-])cc2C(=O)O)cc2ccccc12", "note": "[MONNA, N-((4-methoxy)-2-naphthyl)-5-nitroanthranilic acid]", "values": [{"measurement": "inhibition at 10 µM", "setting": "xTMEM16A [1]; read-out: % inhibition at 10 μM", "value": "72 ± 3", "unit": "%"}]}
{"smiles": "CC(C)(C)C1CCc2c(sc(NC(=O)c3ccco3)c2C(=O)O)C1", "note": "(stereo not shown) [CaCCinh-A01, 6-(1,1-dimethylethyl)-2-[(2-furanylcarbonyl)amino]-4,5,6,7-tetrahydrobenzo[b]thiophene-3-carboxylic acid]", "values": [{"measurement": "% inhibition", "setting": "xTMEM16A [2]", "value": "whereas T16Ainh-A01 and CaCCinh-A01 were much less effective"}]}
